Assay results published in ChEMBL document CHEMBL1201862, “PubChem BioAssay data set” (2004).
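Exposure lasted 48 hours, with cells grown in 96-well plates and compounds tested at five concentrations. GI50: concentration for 50% inhibition of growth.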 Active and inactive are the calls of the source. Cut-off read from the data, not from the text of the source: active = GI50 up to about 1.1 µM and inactive = higher.

What was measured:
Assay in all cases: NCI-60 cell line screen, 48 h
[1] = tested on: RXF 393
[2] = tested on: HCT-15
[3] = tested on: UACC-257
[4] = tested on: PC-3
[5] = tested on: NCI-H226
[6] = tested on: SK-MEL-5
[7] = tested on: OVCAR-4
[8] = tested on: MDA-MB-435
[9] = tested on: SK-MEL-2
[10] = tested on: KM12
[11] = tested on: NCI-H23
[12] = tested on: SK-OV-3
[13] = tested on: SF-268
[14] = tested on: SNB-19
[15] = tested on: A498
[16] = tested on: HOP-92
[17] = tested on: NCI-H460
[18] = tested on: MCF7
[19] = tested on: U-251
[20] = tested on: IGROV-1
[21] = tested on: Hs-578T
[22] = tested on: EKVX
[23] = tested on: HT-29
[24] = tested on: SF-295
[25] = tested on: DU-145
[26] = tested on: SN12C
[27] = tested on: K562
[28] = tested on: OVCAR-8
[29] = tested on: CAKI-1
[30] = tested on: BT-549
[31] = tested on: OVCAR-5
[32] = tested on: NCI/ADR-RES
[33] = tested on: MOLT-4
[34] = tested on: CCRF-CEM
[35] = tested on: SF-539
[36] = tested on: T47D
[37] = tested on: COLO 205
[38] = tested on: ACHN
[39] = tested on: LOX IMVI
[40] = tested on: SNB-75
[41] = tested on: MDA-N
[42] = tested on: HL-60
[43] = tested on: NCI-H522
[44] = tested on: A549
[45] = tested on: MDA-MB-231
[46] = tested on: SW-620
[47] = tested on: M14
[48] = tested on: HCT-116
[49] = tested on: SR
[50] = tested on: 786-0
[51] = tested on: UO-31
[52] = tested on: OVCAR-3
[53] = tested on: RPMI-8226
[54] = tested on: TK-10
[55] = tested on: UACC-62
[56] = tested on: SK-MEL-28
[57] = tested on: Malme-3M
[58] = tested on: HCC 2998
[59] = tested on: HOP-62

COc1ccc(NC=O)c(C(=O)CCNC(C)=O)c1
GI50 [1]: > 100 µM (inactive) | GI50 [2]: > 100 µM | GI50 [3]: > 100 µM (inactive) | GI50 [4]: > 100 µM (inactive) | GI50 [5]: > 100 µM (inactive) | GI50 [6]: > 100 µM (inactive) | GI50 [7]: > 100 µM (inactive) | GI50 [8]: > 100 µM (inactive) | GI50 [9]: > 100 µM (inactive) | GI50 [10]: > 100 µM (inactive) | GI50 [11]: > 100 µM (inactive) | GI50 [12]: > 100 µM (inactive) | GI50 [13]: > 100 µM (inactive) | GI50 [14]: > 100 µM (inactive) | GI50 [15]: > 100 µM (inactive) | GI50 [16]: > 100 µM (inactive) | GI50 [17]: > 100 µM (inactive) | GI50 [18]: > 100 µM (inactive) | GI50 [19]: > 100 µM (inactive) | GI50 [20]: > 100 µM (inactive) | GI50 [21]: > 100 µM (inactive) | GI50 [22]: > 100 µM (inactive) | GI50 [23]: > 100 µM (inactive) | GI50 [24]: > 100 µM (inactive) | GI50 [25]: > 100 µM (inactive) | GI50 [26]: > 100 µM (inactive) | GI50 [27]: > 100 µM (inactive) | GI50 [28]: > 100 µM (inactive) | GI50 [29]: > 100 µM (inactive) | GI50 [30]: > 100 µM (inactive) | GI50 [31]: > 100 µM (inactive) | GI50 [32]: > 100 µM (inactive) | GI50 [33]: > 100 µM (inactive) | GI50 [34]: > 100 µM (inactive) | GI50 [35]: > 100 µM (inactive) | GI50 [36]: > 100 µM (inactive) | GI50 [37]: > 100 µM (inactive) | GI50 [38]: > 100 µM (inactive) | GI50 [39]: > 100 µM (inactive) | GI50 [40]: > 100 µM (inactive) | GI50 [41]: > 100 µM (inactive) | GI50 [42]: > 100 µM (inactive) | GI50 [43]: > 100 µM (inactive) | GI50 [44]: > 100 µM (inactive) | GI50 [45]: > 100 µM (inactive) | GI50 [46]: > 100 µM (inactive) | GI50 [47]: > 100 µM (inactive) | GI50 [48]: > 100 µM (inactive) | GI50 [49]: > 100 µM (inactive) | GI50 [50]: > 100 µM (inactive) | GI50 [51]: > 100 µM (inactive) | GI50 [52]: > 100 µM (inactive) | GI50 [53]: > 100 µM (inactive) | GI50 [54]: > 100 µM (inactive) | GI50 [55]: > 100 µM (inactive)

O=C(N/N=C\c1ccc([N+](=O)[O-])cc1)Nc1ccc2ccccc2c1
GI50 [1]: > 100 µM (inactive) | GI50 [2]: 38.6 µM | GI50 [3]: 44.3 µM (inactive) | GI50 [4]: 44.8 µM (inactive) | GI50 [5]: 32.6 µM (inactive) | GI50 [6]: 77.3 µM (inactive) | GI50 [7]: 21.5 µM (inactive) | GI50 [8]: 34.2 µM (inactive) | GI50 [9]: > 100 µM (inactive) | GI50 [10]: 23.3 µM (inactive) | GI50 [11]: 58.3 µM (inactive) | GI50 [12]: 31.4 µM (inactive) | GI50 [13]: 35.1 µM (inactive) | GI50 [14]: 52.1 µM (inactive) | GI50 [15]: 24.2 µM (inactive) | GI50 [16]: 28.2 µM (inactive) | GI50 [17]: 18.5 µM (inactive) | GI50 [18]: 32.5 µM (inactive) | GI50 [19]: 21.4 µM (inactive) | GI50 [20]: 26.1 µM (inactive) | GI50 [21]: 26 µM (inactive) | GI50 [22]: 44.6 µM (inactive) | GI50 [23]: 27.1 µM (inactive) | GI50 [24]: 49.4 µM (inactive) | GI50 [25]: 71.3 µM (inactive) | GI50 [26]: 45.5 µM (inactive) | GI50 [27]: 73.6 µM (inactive) | GI50 [28]: 29.8 µM (inactive) | GI50 [29]: 37.5 µM (inactive) | GI50 [30]: 45.4 µM (inactive) | GI50 [31]: 34.8 µM (inactive) | GI50 [32]: 50.6 µM (inactive) | GI50 [33]: > 100 µM (inactive) | GI50 [34]: 35.3 µM (inactive) | GI50 [35]: 20.7 µM (inactive) | GI50 [36]: 56.1 µM (inactive) | GI50 [37]: 24.7 µM (inactive) | GI50 [38]: 51.5 µM (inactive) | GI50 [39]: 69.7 µM (inactive) | GI50 [40]: 27.2 µM (inactive) | GI50 [41]: 40.7 µM (inactive) | GI50 [56]: 46.5 µM (inactive) | GI50 [43]: 24.6 µM (inactive) | GI50 [44]: 43.8 µM (inactive) | GI50 [57]: 22.5 µM (inactive) | GI50 [45]: 26.1 µM (inactive) | GI50 [46]: 23.1 µM (inactive) | GI50 [47]: 32.4 µM (inactive) | GI50 [58]: 25.4 µM (inactive) | GI50 [48]: 24.3 µM (inactive) | GI50 [49]: 20.6 µM (inactive) | GI50 [59]: 22.2 µM (inactive) | GI50 [50]: 17.2 µM (inactive) | GI50 [51]: 82.4 µM (inactive) | GI50 [52]: > 100 µM (inactive) | GI50 [53]: 52.8 µM (inactive) | GI50 [54]: 37.5 µM (inactive) | GI50 [55]: 28.1 µM (inactive)

O=C(/C=C/c1ccccc1)OCC1=C[C@@H](O)[C@@H]2C=CO[C@@H](OC3OC(CO)C(O)C(O)C3O)[C@H]12 (some centres undefined)
GI50 [1]: > 100 µM (inactive) | GI50 [2]: > 100 µM | GI50 [3]: > 100 µM (inactive) | GI50 [4]: > 100 µM (inactive) | GI50 [5]: > 100 µM (inactive) | GI50 [6]: > 100 µM (inactive) | GI50 [7]: 67.6 µM (inactive) | GI50 [8]: > 100 µM (inactive) | GI50 [9]: > 100 µM (inactive) | GI50 [10]: > 100 µM (inactive) | GI50 [11]: > 100 µM (inactive) | GI50 [12]: > 100 µM (inactive) | GI50 [13]: > 100 µM (inactive) | GI50 [14]: 95.9 µM (inactive) | GI50 [15]: > 100 µM (inactive) | GI50 [16]: > 100 µM (inactive) | GI50 [18]: > 100 µM (inactive) | GI50 [19]: > 100 µM (inactive) | GI50 [20]: > 100 µM (inactive) | GI50 [21]: > 100 µM (inactive) | GI50 [22]: > 100 µM (inactive) | GI50 [23]: > 100 µM (inactive) | GI50 [24]: > 100 µM (inactive) | GI50 [25]: > 100 µM (inactive) | GI50 [26]: > 100 µM (inactive) | GI50 [28]: > 100 µM (inactive) | GI50 [29]: > 100 µM (inactive) | GI50 [30]: > 100 µM (inactive) | GI50 [31]: > 100 µM (inactive) | GI50 [32]: > 100 µM (inactive) | GI50 [33]: > 100 µM (inactive) | GI50 [34]: > 100 µM (inactive) | GI50 [35]: > 100 µM (inactive) | GI50 [36]: > 100 µM (inactive) | GI50 [37]: > 100 µM (inactive) | GI50 [38]: > 100 µM (inactive) | GI50 [39]: > 100 µM (inactive) | GI50 [40]: > 100 µM (inactive) | GI50 [41]: > 100 µM (inactive) | GI50 [56]: > 100 µM (inactive) | GI50 [43]: > 100 µM (inactive) | GI50 [44]: > 100 µM (inactive) | GI50 [57]: > 100 µM (inactive) | GI50 [45]: > 100 µM (inactive) | GI50 [46]: > 100 µM (inactive) | GI50 [47]: > 100 µM (inactive) | GI50 [58]: > 100 µM (inactive) | GI50 [48]: > 100 µM (inactive) | GI50 [49]: > 100 µM (inactive) | GI50 [59]: > 100 µM (inactive) | GI50 [50]: > 100 µM (inactive) | GI50 [51]: > 100 µM (inactive) | GI50 [52]: > 100 µM (inactive) | GI50 [53]: > 100 µM (inactive) | GI50 [54]: > 100 µM (inactive) | GI50 [55]: > 100 µM (inactive)
